Source: US20240000707A1, “INHALABLE DRY POWDER FORMULATIONS COMPRISING ANGIOGENESIS INHIBITORS” (Lonza Bend Inc., priority 2020, published 2024)

Tested on: NSCLC cell line Calu-3
Experiment: Orthotopic nude rat model for lung cancer, inhaled vs IP bevacizumab, primary and maintenance treatment
Format: in vivo
Conditions: week 8; INH 1.5 mg/kg deposited vs IP 15 mg/kg; cisplatin IP 3 mg/kg
Procedure: NSCLC cell line Calu-3 was instilled into the lungs of X-irradiated rats by an intratracheal route, targeting […] cells per installation. For the first four weeks of the study, no treatment was administered, allowing growth of the tumor cells. Inhaled bevacizumab SDD was evaluated as a primary treatment as well as a maintenance therapy.
Cisplatin was administered by IP at 3 mg/kg. Powder was aerosolized using a rotating brush generator and delivered to the rats passively through nasal inhalation. […] Groups 1-4 were evaluated for primary efficacy after 8 weeks with lung weight as the end point. Groups 5-7 were evaluated for maintenance efficacy after 12 weeks with lung weight and survival as the end point.

Which “tumor burden, co-administered with cisplatin, inhaled vs IP bevacizumab” value does the source give for Bevacizumab [IP bevacizumab] here?
Its value is “indistinguishable, and significantly lower than group 1 and 3”.
